According to patent US20040023984A1, “Compounds for the treatment of alzheimer's disease” (priority 1987, published 2004):
pIC50: −log10 of the molar value. Values joined by “and” are separate entries in the source; they are usually repeats but may differ in a detail not shown here. Equal entries are not always repeated. Where two headings read alike, the source gives them in different places.

Tests used:
acetylcholinesterase [1] = target: T1, acetylcholinesterase (Homo sapiens, UniProt P22303); experiment: Inhibition of acetylcholinesterase, procedure of Ellman (acetylthiocholine substrate, photometric); format: biochemical; details: for inhibition at 1 µM: read-out: inhibition of acetylcholinesterase at concentration 10^−6 molar; for inhibition at 0.001 µM: read-out: inhibition of acetylcholinesterase at concentration 10^−9 molar; for cholinesterase inhibition at 10^−5 M: further compounds
Description: The anticholinesterase activity of the compounds prepared in the above examples was assayed by an assay for inhibition of acetylcholinesterase following the procedure of G. Ellman, […], 7:88-95 (1961) Acetylthiocholine serves as substrate since it acts like acetylcholine. Acetylcholinesterase cleaves it to thiocholine and acetate which react with dithiobisnitrobenzoate to form a yellow color which is measured photometrically.
This assay was carried out at dilution of 10^−5 molar
The compounds were tested in the assay described after Example 5 but at different concentrations. The results obtained were as follows:
Further compounds were prepared by methods analogous to those described above and were tested in a cholinesterase assay as described above.

acetylcholinesterase [2] = target: T1, acetylcholinesterase; experiment: Acetylcholinesterase Inhibition Assay (other cholinesterase activity tests, may be less reliable); format: biochemical; details: results may be less reliable
[3] = tested on: nucleas basalis-lesioned animals; experiment: Nucleus basalis model, passive avoidance in shuttle box; format: in vivo, mice; details: nucleus basalis model, mice, drug given three and ½ hours before learning trials
Text: The following test provides a good animal model for Alzheimer's disease in humans: A selective lesion is placed in a subcortical nucleus (nucleus basalis of Meynert) with a resultant cortical cholinergic deficiency, similar in magnitude to that seen in early to moderate stage Alzheimer's disease. Numerous behavioral deficits, including the inability to learn and retain new information, characterizes this lesion. Drugs that can normalize these abnormalities would have a reasonable expectation of efficacy in Alzheimer's disease. Haroutunian, V, Kanof P, Davis, K L: Pharmacological alleviations of cholinergic-lesion-induced memory defects in rats. Life Sciences, 37:945-952 (1985).
Galanthamine n-butyl carbamate was tested in the nucleus basalis model for galanthamine discussed in the Hartounian et al paper noted above. In the test, mice were given the drug three and ½ hours before two learning trials in a shuttle box. They are placed in the lighted compartment and receive an electric footshock when they cross into the preferred side, the dark. The next day, they are again placed in the lighted compartment and the time to enter the dark is noted. The latency to enter the dark compartment is the basis for this figure. […] Below 50 mg/kg no side effects were noted.

[4] = Solubility noted on isolation of the product; format: physicochemical
cholinesterase = details: Irwin and Smith, Arch. Int. Pharmacodyn. 127:314-330; cited from earlier work
acetylcholinesterase [5] = target: T1, acetylcholinesterase; experiment: biochemical
mice = experiment: Profile of Observable Effects (POE), peripheral cholinergic effects; details: subcutaneous
Description: A number of compounds were also evaluated in a standardized Profile of Observable Effects (POE) which involves administering drug to animal in increasing amounts and observing this for up to two hours to see whether peripheral cholinergic effects such as tremor, lacrimation, salivation, pilo erection, defection or red eye occur.

[6] = tested on: scopolamine induced memory deficit; experiment: Scopolamine dementia dark avoidance test (passive avoidance); format: in vivo, male CFW mice
Description: Furnished data on the effects of these compound on cholinesterase activity were used to determine doses for testing. […] The two other compounds were tested at 1,3 and 10 mg/kg sc and did antagonize the scopolamine induced deficit.
Training and testing of passive avoidance were conducted in a two-compartment (light/dark) test cage. On the training day, mice were individually placed in the light half of the cage and after entering the dark compartment, were administered a 3 sec 0.4 mA footshock. They were then removed from the test chamber and returned to their home cages. Twenty-four hours later, the animals were again placed in the lighted half of the test cage and the latency to enter the dark compartment was measured.
All animals in each group of 15 naive male CFW mice were injected twice subcutaneously. Thirty minutes prior to training, animals were administered 3 mg/kg scopolamine HBr or its 0.9% NaCl vehicle. Five minutes prior to training, independent groups were administered one of three doses of the test compounds or the distilled water vehicle. One group in each experiment received vehicle twice, another group received scopolamine and the dH2O vehicle; the remaining groups received scopolamine and a test compound.
A cutoff value (CO), defined as the second-longest latency in the scopolamine/vehicle treated group, was used to determine whether a compound was active. If 20% or more of the animals in a treatment group had latencies greater than the CO value, the compound was considered active at that dose.
The three compounds were tested in two separate experiments; the results are presented below in Tables 1 and 2. Doses considered active are marked with an asterisk (*).

[7] = dilution of 10^−5 molar, read-out: PERCENT INHIBITION OF ACETYLCHOLINESTERASE
[8] = 10^−5 molar, read-out: inhibition of acetylcholinesterase at concentration 10^−5
[9] = Table 1, scopolamine + 0.3 mg/kg sc, cut-off 38 seconds
[10] = Table 1, scopolamine + 2.0 mg/kg sc, cut-off 38 seconds
[11] = Table 1, scopolamine + 3.0 mg/kg sc, cut-off 38 seconds
[12] = Table 2, scopolamine + 1 mg/kg sc, cut-off 41 seconds
[13] = Table 2, scopolamine + 3 mg/kg sc, cut-off 41 seconds
[14] = Table 2, scopolamine + 10 mg/kg sc, cut-off 41 seconds

T1 sequence (P22303 32-614, species assumed): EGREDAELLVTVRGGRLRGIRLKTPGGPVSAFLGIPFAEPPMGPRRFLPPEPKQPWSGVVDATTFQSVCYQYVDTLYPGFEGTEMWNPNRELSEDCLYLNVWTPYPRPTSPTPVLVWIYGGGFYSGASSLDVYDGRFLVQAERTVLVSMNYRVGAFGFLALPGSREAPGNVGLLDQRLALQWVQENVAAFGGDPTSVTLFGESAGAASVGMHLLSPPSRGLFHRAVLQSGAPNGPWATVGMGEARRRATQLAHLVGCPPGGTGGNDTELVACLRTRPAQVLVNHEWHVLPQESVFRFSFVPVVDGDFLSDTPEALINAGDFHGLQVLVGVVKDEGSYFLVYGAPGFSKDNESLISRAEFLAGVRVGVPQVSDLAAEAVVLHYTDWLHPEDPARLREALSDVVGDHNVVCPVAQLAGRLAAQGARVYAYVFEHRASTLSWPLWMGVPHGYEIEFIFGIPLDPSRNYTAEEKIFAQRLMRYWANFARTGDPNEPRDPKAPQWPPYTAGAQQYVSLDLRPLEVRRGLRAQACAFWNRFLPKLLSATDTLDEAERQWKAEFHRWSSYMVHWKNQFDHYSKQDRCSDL

COc1ccc2c3c1OC1CC(O)CCC31CCNC2 (stereo not shown) [N-demethyl lycoramine]
inhibition of acetylcholinesterase at concentration 10^−5 (acetylcholinesterase [1]; 10^−5 molar): inactive

COc1ccc2c3c1O[C@H]1C[C@@H](OC(=O)CC(C)C)C=C[C@@]31CCN(C)C2 [iso-valeroyl ester]
% Inhibition at 10^−6 (acetylcholinesterase [2]): 39%
% Inhibition at 10^−7 (acetylcholinesterase [2]): 13%
% Inhibition at −10^−5 (acetylcholinesterase [2]): 33%

COc1ccc2c3c1O[C@H]1C[C@@H](OC(=O)Nc4ccccc4)C=C[C@@]31CCN(C)C2 [Product of Example 3]
inhibition at 10 µM (acetylcholinesterase [1]; [7]): 37%

CCNC(=O)O[C@H]1C=C[C@@]23CCN(C)Cc4ccc(OC)c(c42)O[C@H]3C1 [ethyl carbaxnate]
% Inhibition at 10^−6 (acetylcholinesterase [2]): 70%
% Inhibition at 10^−7 (acetylcholinesterase [2]): 9%
% Inhibition at −10^−5 (acetylcholinesterase [2]): 59%

COc1ccc2c3c1O[C@H]1CC(O)C=C[C@@]31CCN(C)C2 (stereo partly shown) [Galanthamine, reference compound]
best dose in passive avoidance test [3]: 3 mg/kg

COc1ccc2c3c1OC1CC(OC(=O)Nc4cccc5ccccc45)C=CC31CCN(C)C2 (stereo not shown) [Product of Example 4]
PERCENT INHIBITION OF ACETYLCHOLINESTERASE (acetylcholinesterase [1]; dilution of 10^−5 molar): 60%

COc1ccc2c3c1O[C@H]1C[C@H](OC(C)=O)C=C[C@@]31CCN(C)C2 [epigalanthamine acetate (from Example 8), epigalanthamine acetate]
solubility in alcohols [4]: soluble
inhibition at 10 µM (acetylcholinesterase [1]; [8]): 21%

CCCOC(N)=O [n-propyl carbamate]
% Inhibition at 10^−6 (acetylcholinesterase [2]): 50%
% Inhibition at 10^−7 (acetylcholinesterase [2]): 21%
% Inhibition at −10^−5 (acetylcholinesterase [2]): 34%

CC(C)OC(N)=O [isopropyl carbamate]
% Inhibition at 10^−6 (acetylcholinesterase [2]): 0%
% Inhibition at 10^−7 (acetylcholinesterase [2]): 0%
% Inhibition at −10^−5 (acetylcholinesterase [2]): 21%

COc1ccc2c3c1OC1C(O)CC=C4C(C2)[N+](C)(C)CCC431.[I-] (stereo not shown) [neopin methiodide]
cholinesterase activity (cholinesterase): ineffective

COc1cc2c3c(c1)OC1C/C(=N/NC(N)=O)C=C[C@@]31CCN(C)C2 (stereo partly shown) [narwedine semicarbazone]
solubility in alcohols [4]: soluble
inhibition of acetylcholinesterase at concentration 10^−5 (acetylcholinesterase [1]; 10^−5 molar): inactive

COc1ccc2c3c1O[C@H]1C[C@@H](O)C=CC31CC[N+](C)(C)C2.[I-] (stereo partly shown) [galanthamine methiodide]
solubility in cold water ([4]; cold water): slightly soluble
solubility in hot water ([4]; hot water): soluble

CNC(=O)Oc1ccc2c3c1OC1CC(O)C=CC31CCN(C)C2 (stereo not shown) [O-demethyl-galanthamine-13-methyl carbamate]
pIC50 (acetylcholinesterase [5]; IC50, acetyl cholinesterase inhibition, S 0.3 mM): 8.70
pIC50 (acetylcholinesterase [5]; IC50, acetyl cholinesterase inhibition, S 5 mM): 8.70
POE, mice showing peripheral cholinergic effects (mice; 0.31 mg/kg): not noted in any of four mice
POE, mice showing peripheral cholinergic effects (mice; 0.63 mg/kg): noticeable in one mouse out of four
POE, mice showing peripheral cholinergic effects (mice; 1 mg/kg): in all four mice

CN1CC[C@@]23C=C[C@H](O)CC2Oc2c(O)ccc(c23)C1 (stereo partly shown) [O-demethyl-galanthamine, O-demethyl galanthamine]
inhibition at 10 µM (acetylcholinesterase [1]; [8]): ≥ 100%
inhibition at 1 µM (acetylcholinesterase [1]): 89%
inhibition at 0.001 µM (acetylcholinesterase [1]): 55%

COc1ccc2c3c1OC1CCCC[C@@]31CCN(C)C2 (stereo partly shown) [deoxylycoramine]
cholinesterase activity (cholinesterase): some activity

COc1ccc2c3c1O[C@H]1C[C@@H](OC(=O)C4CC4)C=C[C@@]31CCN(C)C2 [cyclopropyl carbinol ester]
% Inhibition at 10^−6 (acetylcholinesterase [2]): 13%
% Inhibition at 10^−7 (acetylcholinesterase [2]): 0%
% Inhibition at −10^−5 (acetylcholinesterase [2]): 40%

COc1cc2c3c(c1)OC1C[C@@H](O)C=C[C@@]31CC[N+](C)(Cc1ccccc1)C2.[Br-] (stereo partly shown) [galanthamine benzyl bromide]
solubility in alcohols [4]: soluble
inhibition at 1 µM (acetylcholinesterase [1]): 77%
inhibition at 0.001 µM (acetylcholinesterase [1]): 40%

CCCCCC(=O)O[C@H]1C=C[C@@]23CCN(C)Cc4ccc(OC)c(c42)O[C@H]3C1 [hexanoic ester]
% Inhibition at 10^−6 (acetylcholinesterase [2]): 30%
% Inhibition at 10^−7 (acetylcholinesterase [2]): 36%
% Inhibition at −10^−5 (acetylcholinesterase [2]): 55%

COc1ccc2c3c1OC1CC(OC(C)=O)CCC31CC[N+](C)(C)C2.[I-] (stereo not shown) [lycoramine acetate methiodide]
cholinesterase activity (cholinesterase): ineffective

COc1ccc2c3c1OC1CC(O)C=C[C@@]31CCNC2 (single isomer, unassigned; (-)) [N-demethyl galanthamine, (−) N-demethylgalanthamine]
# > CO/n [6, 9]: 0/15
% > CO [6, 9]: 0%
Mean Latency [6, 9]: 21 s
# > CO/n [6, 10]: 2/15
% > CO [6, 10]: 13%
Mean Latency [6, 10]: 33 s
# > CO/n [6, 11]: 2/15
% > CO [6, 11]: 13%
Mean Latency [6, 11]: 26 s
antagonism of scopolamine induced memory deficit ([6]; doses of 0.3, 1.0 and 3.0 mg/kg): inactive

COc1ccc2c3c1OC1CC(N)CCC31CCN(C)C2 (stereo not shown) [2-amino-2-dehydroxy lycoramine]
cholinesterase inhibition at 10^−5 M (acetylcholinesterase [1]): 17

CCCCC(=O)O[C@H]1C=C[C@@]23CCN(C)Cc4ccc(OC)c(c42)O[C@H]3C1 [valeric ester]
% Inhibition at 10^−6 (acetylcholinesterase [2]): 35%
% Inhibition at 10^−7 (acetylcholinesterase [2]): 37%
% Inhibition at −10^−5 (acetylcholinesterase [2]): 41%

COc1ccc2c3c1O[C@H]1C[C@@H](OC(=O)c4ccccc4F)C=C[C@@]31CCN(C)C2 [o-F-benzoic ester]
% Inhibition at 10^−6 (acetylcholinesterase [2]): 39%
% Inhibition at 10^−7 (acetylcholinesterase [2]): 37%
% Inhibition at −10^−5 (acetylcholinesterase [2]): 27%

COc1ccc2c3c1O[C@H]1C[C@@H](O[Si](C(C)C)(C(C)C)C(C)C)C=C[C@@]31CCN(C)C2 [Product of Example 7]
solubility in alcohols [4]: soluble
inhibition of acetylcholinesterase at concentration 10^−5 (acetylcholinesterase [1]; 10^−5 molar): 17

lycoramine azide
cholinesterase inhibition at 10^−5 M (acetylcholinesterase [1]): 25

COc1ccc2c3c1OC1CC(I)CCC31CCN(C)C2 (stereo not shown) [2-iodo-2-dehydroxy lycoramine]
cholinesterase inhibition at 10^−5 M (acetylcholinesterase [1]): 15

COc1ccc2c3c1O[C@H]1C[C@@H](O)CC[C@@]31CCN(C)C2 [Product of Example 5]
inhibition at 10 µM (acetylcholinesterase [1]; [7]): 30%

deoxydemethyl lycoramine methiodide
cholinesterase activity (cholinesterase): good activity

COc1ccc2c3c1OC1C[C@H](Cl)C=C[C@@]31CCN(C)C2 (stereo partly shown) [Product of Example 10]
inhibition at 10 µM (acetylcholinesterase [1]; [8]): 73%

CCCCCCCCOC(N)=O [octyl carbamate]
% Inhibition at 10^−6 (acetylcholinesterase [2]): 35%
% Inhibition at 10^−7 (acetylcholinesterase [2]): 16%
% Inhibition at −10^−5 (acetylcholinesterase [2]): 55%

COc1ccc2c3c1O[C@H]1C[C@@H](OC(C)=O)C=C[C@@]31CCN(C)C2 [Product of Example 2, Galanthamine acetate]
# > CO/n [6, 12]: 1/15
% > CO [6, 12]: 7%
Mean Latency [6, 12]: 21 s
# > CO/n [6, 13]: 4/15
Mean Latency [6, 13]: 38 s
% > CO ([6]; Table 2, scopolamine + 3 mg/kg sc, cut-off 41 seconds, * = dose considered active): 27* %
# > CO/n [6, 14]: 3/15
Mean Latency [6, 14]: 31 s
% > CO ([6]; Table 2, scopolamine + 10 mg/kg sc, cut-off 41 seconds, * = dose considered active): 20* %
antagonism of scopolamine induced memory deficit ([6]; doses of 3 and 10 mg/kg sc): active
inhibition at 10 µM (acetylcholinesterase [1]; [7]): 37%

COC1C=C[C@@]23CCN(C)Cc4ccc(O)c(c42)OC3C1 (stereo partly shown) [childanthine]
pIC50 (acetylcholinesterase [5]; read-out: IC50, acetyl cholinesterase inhibition): 6.51 and 7.10

4,5-dehydrogalanthamine
cholinesterase inhibition at 10^−5 M (acetylcholinesterase [1]): 30
